The text below walks through data of patent US5227508A, “3-deoxy-3-substituted analogs of phosphatidylinositol” (Mayo Foundation for Medical Education and Research, priority 1992, dated 1993).

Where two headings read alike, the source gives them in different places. Some results are limits rather than exact numbers.

Assay [1] relates to NIH 3T3 cells (wild type). The experiment in a line: Cell growth inhibition, wild type NIH 3T3 cells, 3 days. The class given is cell-based. As to conditions: for IC50: Mus musculus, NIH3T3, 72 h, 3 days. As for the experimental part: (§1) Wild type NIH 3T3 cells and v-sis oncogene-expressing NIH 3T3 cells were maintained in bulk culture in DMEM with 10% heat inactivated calf serum and passaged using 0.05% trypsin and 0.5 mM EDTA. For cell growth assays, the cells were plated at a density of 5×10^3 cells in 1.6 cm diameter culture wells in 0.5 ml DMEM containing 10% heat inactivated calf serum and allowed to attach to the surface of the well for 24 hr. The medium was then replaced with fresh medium containing the myo-inositol analogues. […] Adherent cells were harvested after 3 days and were counted using an automated cell counter. Inhibition of cell growth caused by serial concentrations of analogues was expressed as a percentage of the number of nontreated cells at the end of the 3-day incubation period. Incubations were conducted in quadruplicate. The mean concentration of analogue required to cause 50% inhibition of cell growth (IC50)±S.E. was calculated from nonlinear least-squares regression analysis of the cell-proliferation concentration data (P. L. Appel et al., Cancer Chemother. Pharmacol., 17, 47 (1986)).

Assay [2] deals with normal NIH 3T3 cells and several oncogene transformed NIH 3T3 cell lines. As to conditions: in culture; prior work (A. P. Kozikowski); cited from earlier work.
For assay [3], the system named is v-sis oncogene-expressing NIH 3T3 cells. The experiment in a line: Cell growth inhibition, v-sis oncogene-expressing NIH 3T3 cells, 3 days. Format: cell-based. As to conditions: for IC50: Mus musculus, NIH3T3, 72 h, 3 days. As to the method: as §1
The next assay relates to HT-29 cells. Briefly: Soft agar colony forming assay, HT-29 colon carcinoma, 7 days. Format: cell-based. Conditions: Homo sapiens, HT-29, 168 h, medium with 40 μM myo-inositol, read-out: IC50 for inhibition of colony formation. As to the method:
The human colon carcinoma cell line, HT-29, was chosen as being representative of a clinically very important, slow growing and chemotherapy resistant human solid tumor. Many human colon cancer lines, including HT-29, have the v-sis oncogene (D. L. Trainer et al., Int. J. Cancer, 41, 287 (1988)). The growth of HT-29 cells was measured by colony formation in the soft agar colony forming assay over 7 days, with automated colony counting using a Omicon 3600 Image Analysis System, as described previously by M. C. Alley et al., 44, 549 (1984).
All soft-agarose cultures were performed in similar fashion. Each 35-mm culture dish contained a base layer consisting of 0.5 ml of standard DMEM culture medium (with 40 μM myo-inositol) with 0.5% agarose. On Day 0, cells in bulk culture were dissociated with trypsin and EDTA, washed once in growth medium, and subcultured by layering 1×10^4 viable cells in 0.5 ml of growth medium with 0.3% agarose over each base layer. Cultures were maintained in cell culture incubators at 37° C., 5% CO2 :95% air, and 100% relative humidity. On Day 1 (24 hr later), an upper layer of 1 ml of growth medium containing drug was applied to each culture. Cell lines formed a sufficient number of detectable colonies (>60 μm diameter) for analysis following 7 days of incubation. […]

Where [4] appears, read: - myo-inositol, ± S.E. of mean, read-out: NIH IC50.
[5] abbreviates: - myo-inositol, ± S.E. of mean, read-out: v-sis NIH IC50.

What is called IC50 is the concentration needed to halve the response being measured. For `O[C@@H]1[C@@H](O)[C@H](O)[C@@H](F)[C@@H](O)[C@H]1O` [3-deoxy-3-fluoro-myo-inositol, reference compound], the IC50 in assay [1] (+ myo-inositol, read-out: NIH IC50 (class symbol)) is more than 33000 µM; in assay [1] (setting [4]) it was 7000 µM; in assay [3] (+ myo-inositol, read-out: v-sis NIH IC50 (class symbol)), more than 33000 µM; in assay [3] (setting [5]), 1000 µM. Further, the “cell growth inhibitory activities” value in assay [2] was “exhibit cell growth inhibitory activities”.

Consider `CCCCCCCCCCCCCCCC(=O)OC[C@H](COP(=O)(O)O[C@H]1[C@H](O)[C@@H](O)[C@H](O)[C@@H](F)[C@H]1O)OC(=O)CCCCCCCCCCCCCCC` [Compound 7, 3-Deoxy-3-fluoro-D-myo-inositol [(R)-2,3-bis(hexadecanoyloxy)propyl] hydrogen phosphate], for which the IC50 stood at 99 ± 13 µM in assay [1] (+ myo-inositol, ± S.E. of mean, read-out: NIH IC50); 110 ± 20 µM in assay [1] (setting [4]); 53 ± 9 µM with HT-29 cells; 81 ± 11 µM in assay [3] (+ myo-inositol, ± S.E. of mean, read-out: v-sis NIH IC50); 107 ± 15 µM in assay [3] (setting [5]). The “antagonism of growth inhibition by myo-inositol” value in assay [1] (myo-inositol at physiological concentrations, wild type NIH 3T3) was “not antagonized by myo-inositol at physiological concentrations”; in assay [3] (myo-inositol at physiological concentrations, v-sis NIH 3T3), “not antagonized by myo-inositol at physiological concentrations”. Moreover, the “more potent inhibitor of cell growth than the simple myo-inositol analogue” value in assay [1] (wild type NIH 3T3 cells, compared with D-3-deoxy-fluoro-myo-inositol) is “up to 1,000 fold”. Besides, the “selectivity for growth inhibition of v-sis compared to wild type NIH 3T3 cell” value in assay [3] (v-sis vs wild type NIH 3T3) is “lost”.
